{"source": "PubChem BioAssay AID328", "about": "(DTP/NCI, 2004)", "tested_on": "BDF1 mice, P388 leukemia ip, median survival T/C", "experiment": "NCI In Vivo Anticancer Drug Screen. Data for tumor model P388 Leukemia (intraperitoneal) in B6D2F1 (BDF1) mice", "settings": "endpoint: median survival time, higher = longer survival", "in_short": "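Antitumour effect was judged in vivo: survival in drug-treated mice, normalised to that of vehicle-dosed controls, gives the reported T/C.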", "note": "Values joined by “and” are separate entries in the source; they are usually repeats but may differ in a detail not shown here. Identical values can stand only once. Inconclusive results and toxic doses are left out.", "data": [{"smiles": "COc1cc2cc3c4cc(OC)c(OC)cc4cc[n+]3c(C)c2cc1OC", "values": [{"measurement": "T/C", "setting": "dose: 8.0 mg/kg/injection, schedule: Q03HX024 (ip), vehicle: saline", "value": "150 % of control"}, {"measurement": "T/C", "setting": "dose: 12.5 mg/kg/injection, schedule: Q01DX009 (ip), vehicle: Klucel (hydroxypropylcellulose) (HPC)", "value": "105 % of control"}, {"measurement": "T/C", "setting": "dose: 12.5 mg/kg/injection, schedule: Q01DX009 (ip), vehicle: saline", "value": "165 % of control"}, {"measurement": "T/C", "setting": "dose: 12.5 mg/kg/injection, schedule: Q01DX009 (ip), vehicle: water", "value": "195 % of control"}, {"measurement": "T/C", "setting": "dose: 25.0 mg/kg/injection, schedule: Q01DX009 (ip), vehicle: water", "value": "195 % of control"}, {"measurement": "T/C", "setting": "dose: 25.0 mg/kg/injection, schedule: Q04DX003 (ip), vehicle: water", "value": "170 % of control"}, {"measurement": "T/C", "setting": "dose: 32.0 mg/kg/injection, schedule: Q03HX008 (ip), vehicle: saline", "value": "154 % of control"}, {"measurement": "T/C", "setting": "dose: 32.0 mg/kg/injection, schedule: Q03HX024 (ip), vehicle: saline", "value": "168 % of control"}, {"measurement": "T/C", "setting": "dose: 37.5 mg/kg/injection, schedule: Q01DX001 (ip), vehicle: saline", "value": "154 % of control"}, {"measurement": "T/C", "setting": "dose: 37.5 mg/kg/injection, schedule: Q01DX009 (ip), vehicle: saline", "value": "162 % of control"}, {"measurement": "T/C", "setting": "dose: 50.0 mg/kg/injection, schedule: Q01DX009 (ip), vehicle: saline", "value": "172 % of control and 181 % of control and 184 % of control"}, {"measurement": "T/C", "setting": "dose: 50.0 mg/kg/injection, schedule: Q01DX009 (ip), vehicle: water", "value": "190 % of control"}, {"measurement": "T/C", "setting": "dose: 50.0 mg/kg/injection, schedule: Q04DX003 (ip), vehicle: water", "value": "190 % of control"}, {"measurement": "T/C", "setting": "dose: 64.0 mg/kg/injection, schedule: Q01DX009 (ip), vehicle: saline", "value": "159 % of control"}, {"measurement": "T/C", "setting": "dose: 64.0 mg/kg/injection, schedule: Q01DX009 (sc), vehicle: saline", "value": "100 % of control"}, {"measurement": "T/C", "setting": "dose: 64.0 mg/kg/injection, schedule: Q03HX024 (ip), vehicle: saline", "value": "163 % of control"}, {"measurement": "T/C", "setting": "dose: 75.0 mg/kg/injection, schedule: Q01DX001 (ip), vehicle: saline", "value": "158 % of control"}, {"measurement": "T/C", "setting": "dose: 75.0 mg/kg/injection, schedule: Q01DX009 (ip), vehicle: saline", "value": "183 % of control"}, {"measurement": "T/C", "setting": "dose: 75.0 mg/kg/injection, schedule: Q04DX003 (ip), vehicle: saline", "value": "150 % of control"}, {"measurement": "T/C", "setting": "dose: 100.0 mg/kg/injection, schedule: Q01DX001 (ip), vehicle: water", "value": "195 % of control"}, {"measurement": "T/C", "setting": "dose: 100.0 mg/kg/injection, schedule: Q01DX009 (ip), vehicle: Klucel (hydroxypropylcellulose) (HPC)", "value": "170 % of control"}, {"measurement": "T/C", "setting": "dose: 100.0 mg/kg/injection, schedule: Q01DX009 (ip), vehicle: saline with Tween-80", "value": "159 % of control and 177 % of control and 195 % of control"}, {"measurement": "T/C", "setting": "dose: 100.0 mg/kg/injection, schedule: Q01DX009 (ip), vehicle: saline", "value": "172 % of control and 195 % of control"}, {"measurement": "T/C", "setting": "dose: 100.0 mg/kg/injection, schedule: Q01DX009 (ip), vehicle: water", "value": "210 % of control"}, {"measurement": "T/C", "setting": "dose: 100.0 mg/kg/injection, schedule: Q04DX002 (ip), vehicle: saline", "value": "163 % of control"}, {"measurement": "T/C", "setting": "dose: 100.0 mg/kg/injection, schedule: Q04DX003 (ip), vehicle: saline", "value": "153 % of control"}, {"measurement": "T/C", "setting": "dose: 100.0 mg/kg/injection, schedule: Q04DX003 (ip), vehicle: water", "value": "190 % of control"}, {"measurement": "T/C", "setting": "dose: 128.0 mg/kg/injection, schedule: Q01DX009 (ip), vehicle: saline", "value": "163 % of control"}, {"measurement": "T/C", "setting": "dose: 128.0 mg/kg/injection, schedule: Q01DX009 (sc), vehicle: saline", "value": "100 % of control"}, {"measurement": "T/C", "setting": "dose: 128.0 mg/kg/injection, schedule: Q03HX008 (ip), vehicle: saline", "value": "154 % of control"}, {"measurement": "T/C", "setting": "dose: 128.0 mg/kg/injection, schedule: Q03HX024 (ip), vehicle: saline", "value": "181 % of control"}, {"measurement": "T/C", "setting": "dose: 150.0 mg/kg/injection, schedule: Q01DX001 (ip), vehicle: saline", "value": "162 % of control"}, {"measurement": "T/C", "setting": "dose: 150.0 mg/kg/injection, schedule: Q01DX009 (ip), vehicle: saline", "value": "195 % of control"}, {"measurement": "T/C", "setting": "dose: 150.0 mg/kg/injection, schedule: Q04DX003 (ip), vehicle: saline", "value": "162 % of control"}, {"measurement": "T/C", "setting": "dose: 200.0 mg/kg/injection, schedule: Q01DX001 (ip), vehicle: water", "value": "185 % of control"}, {"measurement": "T/C", "setting": "dose: 200.0 mg/kg/injection, schedule: Q01DX009 (ip), vehicle: saline with Tween-80", "value": "86 % of control and 181 % of control and 218 % of control"}, {"measurement": "T/C", "setting": "dose: 200.0 mg/kg/injection, schedule: Q01DX009 (ip), vehicle: saline", "value": "172 % of control and 196 % of control and 204 % of control"}, {"measurement": "T/C", "setting": "dose: 200.0 mg/kg/injection, schedule: Q01DX009 (ip), vehicle: water", "value": "165 % of control"}, {"measurement": "T/C", "setting": "dose: 200.0 mg/kg/injection, schedule: Q04DX002 (ip), vehicle: saline", "value": "157 % of control"}, {"measurement": "T/C", "setting": "dose: 200.0 mg/kg/injection, schedule: Q04DX003 (ip), vehicle: saline", "value": "169 % of control and 204 % of control"}, {"measurement": "T/C", "setting": "dose: 200.0 mg/kg/injection, schedule: Q04DX003 (ip), vehicle: water", "value": "205 % of control"}, {"measurement": "T/C", "setting": "dose: 256.0 mg/kg/injection, schedule: Q01DX009 (sc), vehicle: saline", "value": "100 % of control"}, {"measurement": "T/C", "setting": "dose: 256.0 mg/kg/injection, schedule: Q03HX024 (ip), vehicle: saline", "value": "122 % of control"}, {"measurement": "T/C", "setting": "dose: 256.0 mg/kg/injection, schedule: Q08DX002 (ip), vehicle: saline", "value": "154 % of control"}, {"measurement": "T/C", "setting": "dose: 300.0 mg/kg/injection, schedule: Q01DX001 (ip), vehicle: saline", "value": "158 % of control"}, {"measurement": "T/C", "setting": "dose: 300.0 mg/kg/injection, schedule: Q01DX009 (ip), vehicle: saline", "value": "216 % of control"}, {"measurement": "T/C", "setting": "dose: 300.0 mg/kg/injection, schedule: Q04DX003 (ip), vehicle: saline", "value": "170 % of control"}, {"measurement": "T/C", "setting": "dose: 400.0 mg/kg/injection, schedule: Q01DX001 (ip), vehicle: water", "value": "170 % of control"}, {"measurement": "T/C", "setting": "dose: 400.0 mg/kg/injection, schedule: Q01DX009 (ip), vehicle: saline with Tween-80", "value": "181 % of control"}, {"measurement": "T/C", "setting": "dose: 400.0 mg/kg/injection, schedule: Q01DX009 (ip), vehicle: saline", "value": "90 % of control"}, {"measurement": "T/C", "setting": "dose: 400.0 mg/kg/injection, schedule: Q04DX002 (ip), vehicle: saline", "value": "163 % of control and 191 % of control"}, {"measurement": "T/C", "setting": "dose: 400.0 mg/kg/injection, schedule: Q04DX003 (ip), vehicle: saline", "value": "180 % of control and 190 % of control"}, {"measurement": "T/C", "setting": "dose: 400.0 mg/kg/injection, schedule: Q04DX003 (ip), vehicle: water", "value": "240 % of control"}, {"measurement": "T/C", "setting": "dose: 512.0 mg/kg/injection, schedule: Q01DX001 (ip), vehicle: saline", "value": "163 % of control"}, {"measurement": "T/C", "setting": "dose: 512.0 mg/kg/injection, schedule: Q01DX009 (sc), vehicle: saline", "value": "109 % of control"}, {"measurement": "T/C", "setting": "dose: 512.0 mg/kg/injection, schedule: Q08DX002 (ip), vehicle: saline", "value": "159 % of control"}, {"measurement": "T/C", "setting": "dose: 600.0 mg/kg/injection, schedule: Q01DX001 (ip), vehicle: saline", "value": "200 % of control"}, {"measurement": "T/C", "setting": "dose: 600.0 mg/kg/injection, schedule: Q01DX009 (ip), vehicle: saline", "value": "116 % of control"}, {"measurement": "T/C", "setting": "dose: 600.0 mg/kg/injection, schedule: Q04DX003 (ip), vehicle: saline", "value": "170 % of control"}, {"measurement": "T/C", "setting": "dose: 800.0 mg/kg/injection, schedule: Q04DX003 (ip), vehicle: saline", "value": "181 % of control"}, {"measurement": "T/C", "setting": "dose: 1024.0 mg/kg/injection, schedule: Q01DX001 (ip), vehicle: saline", "value": "109 % of control"}, {"measurement": "T/C", "setting": "dose: 1024.0 mg/kg/injection, schedule: Q01DX009 (sc), vehicle: saline", "value": "100 % of control"}, {"measurement": "T/C", "setting": "dose: 1024.0 mg/kg/injection, schedule: Q08DX002 (ip), vehicle: saline", "value": "177 % of control"}, {"measurement": "T/C", "setting": "dose: 2048.0 mg/kg/injection, schedule: Q01DX009 (sc), vehicle: saline", "value": "100 % of control"}, {"measurement": "T/C", "setting": "dose: 2048.0 mg/kg/injection, schedule: Q04DX003 (ip), vehicle: saline", "value": "109 % of control"}]}]}
